{
  "source": "patent US20120225031A1",
  "about": "“SPHINGOSINE-1-PHOSPHATE RECEPTOR AGONISTS IN THE TREATMENT OF DEMYELINATING DISORDERS” (priority 2002, published 2012)",
  "molecules": {"B1": {"name": "INFβ: Recombinant mouse interferon β (Calbiochem/Biosciences), dissolved in saline, given by intraperitoneal injection (protein, UniProt P01575 22-182, looked up)", "Interferon beta": "INYKQLQLQERTNIRKCQELLEQLNGKINLTYRADFKIPMEMTEKMQKSYTAFAIQEMLQNVFLVFRNNFSSTGWNETIVVRLLDELHQQTVFLKTVLEEKQEERLTWEMSSTALHLKSYYWRVQRYLKLMKYNSYAWMVVRAEIFRNFLIIRRLTRNFQN"}},
  "key": {"[1]": {"assay": "Acute toxicity (LD50) in rats", "settings": "rat, in vivo, po"}, "[2]": {"test_system": "Lewis rat model of EAE", "assay": "Lewis rat model of EAE, prophylactic treatment regimen", "type": "in vivo", "settings": "combination with a mTOR inhibiter at similar doses, EAE induced by intradermal guinea pig neuroantigen"}, "[3]": {"test_system": "SJL/J mouse model of chronic progressive EAE", "assay": "SJL/J mouse model of chronic progressive EAE", "type": "in vivo", "experimental": "A.1 In Vivo: SJL/J Mouse Model of Chronic Progressive EAE\nThe disease course in this animal model shares some common features with SP- and PR-MS. Immunization: On day 0 female SJL/J mice are immunized (subcutaneous flank injection) with 200 μl inoculum containing 500 μg bovine myelin basic protein (MBP) emulsified in complete Freund's adjuvant (CFA). On day 9 mice are boosted by a second MBP injection and an additional intravenous adjuvant injection consisting of 200 ng B. pertussis toxin. A final Pertussis injection is given on day 11. […] This is followed by a recovery phase starting around day 25, during which time mice remain symptom-free for about 20 days. Subsequently, by days 45-47, approximately 50% of the animals go into the progressive phase of the disease. Therefore, therapeutic treatment with test compounds starts on day 21 when the disease is fully established and continues until day 70, unless stated otherwise. Recombinant mouse interferon β (INFβ Calbiochem/Biosciences) is dissolved in saline and given by intraperitoneal injection 3× per week. Compound (a), e.g. Compound A or B, is diluted in water and given p.o. 5× per week by gavage. Mice in the vehicle control group are MBP-immunized and treated with water.\nEach experimental group consists of 10 mice, which are examined daily for clinical EAE symptoms. Disease incidence and the day of EAE onset also are recorded. Clinical grades of EAE are assessed using a scale from 0 to 3. Any disease-related mortality which occurs after starting drug treatment is recorded with a maximum score of 3."}, "[4]": {"test_system": "DA rat model of chronic-protracted EAE", "assay": "Optic neuritis in the DA rat model of chronic-protracted EAE", "type": "in vivo", "settings": "for disease progression (clinical EAE): 0.3 mg/kg p.o. once a day for 2 weeks, therapeutic treatment from about day 12, compared to vehicle-treated controls; for development of EAE symptoms / disease-related weight loss: suboptimal dose <0.1 mg/kg p.o. combined with a mTOR inhibitor (<1 mg/kg p.o.), therapeutic dosing", "source_text": "A.2 In Vivo: Optic Neuritis in the DA Rat Model of Chronic-Protracted EAE\nOcular pathologic manifestations such as optic neuritis (neuromyelitis optica) are frequent in multiple sclerosis and often precede or accompany plaque formation in the brain white matter. Ocular areas, especially the optic chiasma, also are important targets in demyelinating forms of EAE. In such EAE models, functional disability caused by demyelination of the optic nerve can be assessed by electrophysiological methods, such as visual evoked cortical potentials and electroretinogram, in conjunction with morphological analysis of the ocular tissue.\nImmunization: On day 0, female DA rats are immunized by a single intradermal injection at the tail base with 100-200 μl inoculum containing a recombinant encephalitogenic peptide, e.g. myelin oligodendrocyte glycoprotein, or a homogenate of syngeneic central nervous system tissue emulsified in one part CFA (volume:volume). Neurologic symptoms develop by 10 days post-immunization, and clinical grades of EAE are assessed using a scale of 0 to 4. Therapeutic treatment with the test compound starts when the disease is fully established, usually on day 12, and continues for 2 weeks."}, "[5]": {"assay": "Acute toxicity (LD50) in monkeys", "settings": "monkey, in vivo, po"}, "[6]": {"settings": "0.6 mg/kg p.o. 5x per week in combination with INFβ (10 000 IU i.p. 3x per week), therapeutic treatment from day 21, days 45-75, compared to vehicle-treated controls"}},
  "data": [
    {"molecule": "CCCCCCCCc1ccc(CCC(N)(CO)CO)cc1.Cl", "note": "[Compound A, 2-amino-2-[2-(4-octylphenyl)ethyl]propane-1,3-diol]", "values": [
      {"measurement": "LD50", "setting": "[1]", "result": "> 10", "unit": "mg/kg"},
      {"measurement": "disease onset", "setting": "[2]", "result": "prevent disease onset"},
      {"measurement": "disease progression (clinical EAE)", "setting": "[3]; [6]", "result": "prevents disease progression for one month"},
      {"measurement": "disease progression (clinical EAE)", "setting": "[4]", "result": "prevents disease progression for at least 2 months"},
      {"measurement": "development of EAE symptoms", "setting": "[4]", "result": "curtail development of EAE symptoms"},
      {"measurement": "disease-related weight loss", "setting": "[4]", "result": "prevent disease-related weight loss"},
      {"measurement": "LD50", "setting": "[5]", "result": "> 10", "unit": "mg/kg"}
    ]},
    {"molecule": "NC(CO)(CO)CCc1ccc(C(=O)CCCCc2ccccc2)cc1", "note": "[Compound B, 2-amino-2-{2-[4-(1-oxo-5-phenylpentyl)phenyl]ethyl}propane-1,3-diol]", "values": [
      {"measurement": "disease onset", "setting": "[2]", "result": "prevent disease onset"},
      {"measurement": "disease progression (clinical EAE)", "setting": "[3]; [6]", "result": "prevents disease progression for one month"},
      {"measurement": "disease progression (clinical EAE)", "setting": "[4]", "result": "prevents disease progression for at least 2 months"},
      {"measurement": "development of EAE symptoms", "setting": "[4]", "result": "curtail development of EAE symptoms"},
      {"measurement": "disease-related weight loss", "setting": "[4]", "result": "prevent disease-related weight loss"}
    ]},
    {"molecule": "B1", "values": [
      {"measurement": "disease progression (clinical EAE)", "setting": "[3]; INFβ alone, 10 000 IU 3x/week i.p., afterwards full EAE response indistinguishable from vehicle-treated controls by day 68 onwards", "result": "only marginally inhibits disease progression for about 1 week"}
    ]}
  ]
}
